{
  "source": "patent US11390604B2",
  "about": "(Hoffmann-La Roche Inc., priority 2019, dated 2022)",
  "note": "Counter-ions that a name gives are not always drawn.",
  "data": [
    {"test_system": "Acinetobacter baumannii ATCC 17961", "test": "Antimicrobial susceptibility testing: 90% growth inhibitory concentration (IC90) determination", "type": "cell-based", "details": "ATCC17961, Acinetobacter baumannii ATCC 17961, Iso-Sensitest broth, read-out: ATCC 17961 IC90", "outline": "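Broth microdilution in Iso-Sensitest medium, twofold series (e.g. 50 to 0.097 μM final), ~5×10^5 CFU/ml inoculum, 35±2 °C. OD600 read every 20 min over 16 h. IC90 derived from growth inhibition during logarithmic phase.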", "units": {"IC90": "nM"}, "values": [
      {"smiles": "CCn1cc(-c2cnc(C(=O)Nc3ccc(C(=O)N4CCC(CCC(C)(C)N(C)C)CC4)c(Cl)c3)n2C)c(C(F)(F)F)n1", "note": "[Example 360, N-(3-chloro-4-(4-(3-(dimethylamino)-3-methylbutyl)piperidine-1-carbonyl)phenyl)-5-(1-ethyl-3-(trifluoromethyl)-1H-pyrazol-4-yl)-1-methyl-1H-imidazole-2-carboxamide]", "IC90": 474},
      {"smiles": "Cn1c(-c2cn(CC#N)nc2C(F)(F)F)cnc1C(=O)Nc1ccc(C(=O)N[C@H]2C[C@@H](NC(=O)N3CCCC3CN)C2)c(Cl)c1", "note": "(some centres unmarked) [Example 361, N-[4-[[3-[[2-(aminomethyl)pyrrolidine-1-carbonyl]amino]cyclobutyl]car-bamoyl]-3-chloro-phenyl]-5-[1-(cyanomethyl)-3-(trifluoromethyl)pyrazol-4-yl]-1-methyl-imidazole-2-carboxamide; formic acid]", "IC90": 479},
      {"smiles": "Cn1c(-c2cn(C3CC3)nc2C(F)(F)F)cnc1C(=O)Nc1ccc(C(=O)N2CCN(C(=O)N3CCC(N)CC3)CC2)c(Cl)c1", "note": "[Example 362, N-(4-(4-(4-aminopiperidine-1-carbonyl)piperazine-1-carbonyl)-3-chlorophenyl)-5-(1-cyclopropyl-3-(trifluoromethyl)-1H-pyrazol-4-yl)-1-methyl-1H-imidazole-2-carboxamide formate]", "IC90": 480},
      {"smiles": "Cn1c(-c2cn(CC(F)F)nc2C(F)(F)F)cnc1C(=O)Nc1ccc(C(=O)N2CCC23CN(C(=O)C2CCNCC2)C3)c(Cl)c1", "note": "[Example 363, N-(3-chloro-4-(6-(piperidine-4-carbonyl)-1,6-diazaspiro[3.3]heptane-1-carbonyl)phenyl)-5-(1-(2,2-difluoroethyl)-3-(trifluoromethyl)-1H-pyrazol-4-yl)-1-methyl-1H-imidazole-2-carboxamide formate]", "IC90": 481},
      {"smiles": "Cn1c(-c2cn(CC(F)F)nc2C(F)F)cnc1C(=O)Nc1ccc(C(=O)N2CCN(C(=O)[C@H]3[C@@H]4CNC[C@@H]43)CC2)c(Cl)c1", "note": "[Example 364, N-(4-(4-((1R,5S,6r)-3-azabicyclo[3.1.0]hexane-6-carbonyl)piperazine-1-carbonyl)-3-chlorophenyl)-5-(1-(2,2-difluoroethyl)-3-(difluoromethyl)-1H-pyrazol-4-yl)-1-methyl-1H-imidazole-2-carboxamide formate]", "IC90": 482},
      {"smiles": "CNC1CCN(C(=O)c2ccc(NC(=O)c3ncc(-c4cn(C5CC5)nc4C(F)(F)F)n3C)cc2Cl)CC1", "note": "[Example 366, N-(3-chloro-4-(4-(methylamino)piperidine-1-carbonyl)phenyl)-5-(1-cyclopropyl-3-(trifluoromethyl)-1H-pyrazol-4-yl)-1-methyl-1H-imidazole-2-carboxamide formate]", "IC90": 483},
      {"smiles": "Cn1c(-c2cn(C3CC3)nc2C(F)(F)F)cnc1C(=O)Nc1ccc(C(=O)N2CCN(C(=O)[C@@H]3C[C@H](F)CN3)CC2)c(Cl)c1", "note": "[Example 367, N-(3-chloro-4-(4-((2S,4S)-4-fluoropyrrolidine-2-carbonyl)piperazine-1-carbonyl)phenyl)-5-(1-cyclopropyl-3-(trifluoromethyl)-1H-pyrazol-4-yl)-1-methyl-1H-imidazole-2-carboxamide hydrochloride]", "IC90": 484},
      {"smiles": "CN(C(=O)c1ccc(NC(=O)c2ncc(-c3cn(C4CC4(F)F)nc3C(F)(F)F)n2C)cc1Cl)C1CCNCC1", "note": "(centres unmarked) [Example 368, N-(3-chloro-4-(methyl(piperidin-4-yl)carbamoyl)phenyl)-5-(1-(2,2-difluorocyclopropyl)-3-(trifluoromethyl)-1H-pyrazol-4-yl)-1-methyl-1H-imidazole-2-carboxamide formate]", "IC90": 484},
      {"smiles": "Cn1c(-c2cn(CC3CC3)nc2C(F)(F)F)cnc1C(=O)Nc1ccc(C(=O)N2CCN(C(=O)N[C@@H]3CC[C@@H](N)C3)CC2)c(Cl)c1", "note": "[Example 369, N-((1R,3R)-3-aminocyclopentyl)-4-(2-chloro-4-(5-(1-(cyclopropylmethyl)-3-(trifluoromethyl)-1H-pyrazol-4-yl)-1-methyl-1H-imidazole-2-carboxamido)benzoyl)piperazine-1-carboxamide]", "IC90": 485},
      {"smiles": "Cn1c(-c2cn(C3CC3)nc2C(F)(F)F)cnc1C(=O)Nc1ccc(C(=O)N2CCC(N3CCC(O)CC3)CC2)c(Cl)c1", "note": "[Example 370]", "IC90": 485},
      {"smiles": "Cn1c(-c2cn(CC3CCC3)nc2C(F)(F)F)cnc1C(=O)Nc1ccc(C(=O)N2CCNCC2)c(Cl)c1", "note": "[Example 371, N-(3-chloro-4-(piperazine-1-carbonyl)phenyl)-5-(1-(cyclobutylmethyl)-3-(trifluoromethyl)-1H-pyrazol-4-yl)-1-methyl-1H-imidazole-2-carboxamide dihydrochloride]", "IC90": 485},
      {"smiles": "Cn1c(-c2cn(CC#N)nc2C(F)(F)F)cnc1C(=O)Nc1ccc(C(=O)N[C@H]2CC[C@@H](NC(=O)[C@H]3C[C@H](N)C3)CC2)c(Cl)c1", "note": "[Example 372, rac-N-(4-(((1S,4s)-4-((1r,3R)-3-aminocyclobutane-1-carboxamido)cyclohexyl)car-bamoyl)-3-chlorophenyl)-5-(1-(cyanomethyl)-3-(trifluoromethyl)-1H-pyrazol-4-yl)-1-methyl-1H-imidazole-2-carboxamide 2,2,2-trifluoroacetate]", "IC90": 486},
      {"smiles": "Cn1c(-c2cn(CC3CC3)nc2C(F)(F)F)cnc1C(=O)Nc1ccc(C(=O)NCC2CN(C(=O)N[C@H]3C[C@@H](N)C3)C2)c(Cl)c1", "note": "[Example 373, rac-N-(4-(((1-(((1s,3s)-3-aminocyclobutyl)carbamoyl)aze-tidin-3-yl)methyl)carbamoyl)-3-chlorophenyl)-5-(1-(cyclopropylmethyl)-3-(trifluoromethyl)-1H-pyrazol-4-yl)-1-methyl-1H-imidazole-2-carboxamide formate]", "IC90": 494},
      {"smiles": "CCn1cc(-c2cnc(C(=O)Nc3ccc(C(=O)N4CCN(C(=O)C5CCNCC5)CC4)c(Br)c3)n2C)c(C(F)(F)F)n1", "note": "[Example 374, N-(3-bromo-4-(4-(piperidine-4-carbonyl)piperazine-1-carbonyl)phenyl)-5-(1-ethyl-3-(trifluoromethyl)-1H-pyrazol-4-yl)-1-methyl-1H-imidazole-2-carboxamide hydrochloride]", "IC90": 495},
      {"smiles": "Cn1c(-c2cn(CC(F)F)nc2C(F)(F)F)cnc1C(=O)Nc1ccc(C(=O)N2CCN(CC(=O)NCCN)CC2)c(Cl)c1", "note": "[Example 375, N-(4-(4-(2-((2-aminoethyl)amino)-2-oxoethyl)piperazine-1-carbonyl)-3-chlorophenyl)-5-(1-(2,2-difluoroethyl)-3-(trifluoromethyl)-1H-pyrazol-4-yl)-1-methyl-1H-imidazole-2-carboxamide formate]", "IC90": 495},
      {"smiles": "Cn1c(-c2cn(C3CC3)nc2C(F)(F)F)cnc1C(=O)Nc1ccc(C(=O)NCCCCCCNC(=O)NCC2CNC2)c(Cl)c1", "note": "[Example 378, N-[4-[6-(azetidin-3-ylmethylcarbamoylamino)hexyl-carbamoyl]-3-chlorophenyl]-5-[1-cyclopropyl-3-(trifluoromethyl)pyrazol-4-yl]-1-methylimidazole-2-carboxamide;formic acid]", "IC90": 497},
      {"smiles": "Cn1c(-c2cn(C3CC3C(F)(F)F)nc2C(F)(F)F)cnc1C(=O)Nc1ccc(C(=O)N2CCN(C(=O)C3CCNCC3)CC2)c(Cl)c1", "note": "(centres unmarked) [Example 379, N-(3-chloro-4-(4-(piperidine-4-carbonyl)piperazine-1-carbonyl)phenyl)-1-methyl-5-(3-(trifluoromethyl)-1-(2-(trifluoromethyl)cyclopropyl)-1H-pyrazol-4-yl)-1H-imidazole-2-carboxamide formate]", "IC90": 499}
    ]}
  ]
}
